Data taken from patent US11478474B2, “2-(3′-(hydroxymethyl)-1-methyl-5-((5-(2-methyl-4-(oxetan-3-yl)piperazin-1-yl)pyridin-2-yl)amino)-6-oxo-1,6-dihydro-[3,4′-bipyridin]-2′-yl)-7,7-dimethyl-7,8-dihydro-2H-cyclopenta[4,5]pyrrolo[1,2-a]pyrazin-1(6H)-one as a BTK inhibitor” (HUTCHISON MEDIPHARMA LIMITED, priority 2020, dated 2022).

Legend:
[1] = Stability test in liver microsomes (mouse); type: in vitro ADME; details: mouse liver microsomes 0.5 mg/mL, compound 1 μM, 37° C.
Source text: (§1) Example 5 Stability Test in Liver Microsomes
(§2) Both male CD-1 mouse pooled liver microsomes and male SD rat pooled liver microsomes were purchased from BioreclamationIVT Corporation, USA.
(§3) Phenacetin, glucose-6-phosphate dehydrogenase (G-6-PDH) and nicotinamide adenine dinucleotide phosphate (NADP) were all purchased from Sigma-Aldrich Corporation, USA. Glucose-6-phosphate (G-6-P) was purchased from Shanghai Eybridge Chemical Technology Co., Ltd.
(§4) Ten mM test compound stock solution: a certain amount of test compound was weighed, and dissolved with an appropriate volume of DMSO to prepare a stock solution with a concentration of 10 mM for use.
(§5) Reaction stopping solution: an appropriate amount of internal standard compound phenacetin was dissolved in acetonitrile to prepare a reaction stopping solution with a concentration of 1000 ng/mL for use at room temperature.
(§6) The test compound stock solution was diluted with an organic solvent (usually a mixture of acetonitrile, methanol and water with various ratios, depending on the solubility of the compound, if necessary, 1 N hydrochloric acid or 1 N sodium hydroxide would be added to facilitate solubilization) to the 0.1 mM (the final concentration of the compound in the reaction system was 1 μM) and the concentration percentage of the organic solvents in the incubation system no more than 1% (wherein the percentage of DMSO was required to be no more than 0.1%). An appropriate amount of 100 mM NADP, 500 mM G-6-P and 100 Unit/mL G-6-PDH were mixed and diluted with ultrapure water (the final system contains 1 mM NADP, 5 mM G-6-P and 1 Unit/mL G-6-PDH), pre-incubated in a 37° C. water bath for 10 minutes and then placed on ice for use as a NADPH regeneration solution. 20 mg/mL liver microsomes solution and 200 mM phosphate buffer was mixed, and diluted with ultrapure water to give a liver microsomes solution containing 2.5 mg/mL liver microsomes (the final concentration of the reaction system is 0.5 mg/mL) and 50 mM phosphate buffer. The diluted liver microsomes solution was mixed with 0.1 mM compound solution, a mixture of 100 mM EDTA, 300 mM MgCl2 solution, 200 mM phosphate buffer (the final system was 3 mM MgCl2, 1 mM EDTA and 50 mM phosphate buffer) and water in an appropriate volume was added. Finally, the NADPH regeneration solution was added, then the reaction solution was placed in a 37° C. water bath to start the reaction (the reaction time was 30 minutes), and the reaction was stopped by adding the ice-cold acetonitrile reaction stopping solution containing the internal standard. The 0-minute sample was not incubated in a 37° C. water bath, and its difference from the 30-minute sample further lies in that the ice-cold acetonitrile reaction stopping solution containing the internal standard was added first, and then the NADPH regeneration solution was added. The sample added with the reaction stopping internal standard solution was vortexed and mixed well, and then centrifuged at 4400 rpm for 10 minutes. The supernatant was taken and diluted ten times with 50% methanol for LC-MS/MS analysis.
(§7) LC-MS/MS was used to determine the concentration of the compound in the sample. The percentage of the remaining compound after 30 minutes of incubation comparing with that in the 0-minute sample was calculated using the peak area ratio of the compound to the internal standard as an indicator, to evaluate the metabolic stability of the compound.
(§8) Instrument: API4500, API4000 or LTQ Mass Spectrometer; the liquid phase is UHPLC system (Shimadzu LC-30 AD, model Nexra X2) including liquid delivery unit, column thermostat, detector and autosampler; or Agilent 1200 Binary Pump series HPLC and CTC Autosampler.
(§9) Chromatographic column: Waters XSELECT Hss T3 C18 (2.5 μm, 2.1×50 mm) or […] (5 μm, 2.0×50 mm)
(§10) A: water with 0.1% FA (formic acid) (with or without 0.1% ACN (acetonitrile))
(§11) B: acetonitrile with 0.1% FA (formic acid).

[2] = Stability test in liver microsomes (rat); type: in vitro ADME; details: for stability in rat & mouse liver microsomes compared with the reference GDC-0853: 30 minutes; for RLM (percentage of the remaining compound after 30 minutes of incubation): rat liver microsomes 0.5 mg/mL, compound 1 μM, 37° C.
Source text: as §1, §2, §3, §4, §5, §6, §7, §8, §9, §10, §11

[3] = test system: B cell activation in mouse whole blood induced by anti-IgD antibodies; test: In vivo efficacy of the inhibitory effect on BTK target (anti-IgD antibody-induced B cell activation in mice whole blood after in vivo administration)
Description: Objects: B cells in mice whole blood were induced and activated by the anti-IgD antibody, and the inhibitory effect of the compound of the present invention on B cell activation in vivo was studied, so as to determine the inhibitory effect of the compound of the present invention on the BTK target in vivo.
Methods: C57BL/6 mice (female, 18-20 g, purchased from Shanghai Lingchang Biotechnology Co., Ltd.) were grouped according to Table 2.
The animals of each group were administered, then were placed in CO2 for anesthesia at designated time points, blood samples were taken from […] via retro-orbital bleeding, and heparin was used for anticoagulation; 90 μL of whole blood was taken from mice of each group, and added to a 96 well culture plate, and anti-mouse IgD antibody (BIO-RAD, Cat #MCA4693) was added to each well to a final concentration of 0.01 μg/μL (respectively for the each drug-treated group and anti-IgD antibody-inducted vehicle group); in addition, 90 μL of whole blood of mice in the vehicle group was taken and added to the 96-well culture plate, and PBS (phosphate buffer, GIBCO, Cat #C20012500BT) was added to each well to a final concentration of 0.01 μg/μL (namely, the vehicle control group); Each group was mixed well and incubated in a 37° C./5% CO2 incubator for 4 hours. In addition, the blood of mice in the drug-treated group was centrifuged to separate plasma for blood concentration analysis.
Calculation for B Cell Activation Ratio: B cell activation ratio=percentage of CD69+CD19+double positive B cells/percentage of CD19+single positive B cells
Calculation for Inhibition Ratio: Inhibition ratio=(percentage of B cell activation ratio in anti-IgD antibody-induced vehicle group-percentage of B cell activation ratio in drug-treated group)/(percentage of B cell activation ratio in anti-IgD antibody-induced vehicle group-percentage of B cell activation ratio in vehicle control group)×100%
All data are represented by mean±standard error. For the comparison between each drug-treated group and the anti-IgD antibody-induced vehicle group, p value was calculated by Graphpad Prism using one-way ANOVA analysis of variance and Dunnett's test, and for the comparison between each drug-treated group, p value was calculated by using unpaired t test.

SMILES	MLM (percentage of the remaining compound after 30 minutes of incubation) [1]	stability in rat & mouse liver microsomes compared with the reference GDC-0853 [2]	RLM (percentage of the remaining compound after 30 minutes of incubation) [2]	B cell activation ratio (the proportion of activated B cells to total B cells) ([3]; 5 mg/kg, 16 h after administration, mice whole blood, anti-IgD antibody, mean±standard error)	Inhibition ratio (%) on B cell activation ([3]; 5 mg/kg, 16 hours after administration, mice whole blood, anti-IgD antibody, listed as Compound 19)	Inhibition ratio (%) on B cell activation ([3]; 5 mg/kg, 16 hours after administration, mice whole blood, anti-IgD antibody, listed as compound 19)	Inhibition ratio (%) ([3]; 20 mg/kg single oral gavage, 16 h)	B cell activation ratio (the proportion of activated B cells to total B cells) ([3]; 20 mg/kg single oral gavage, 16 h, mean ± standard error)	inhibition ratio on B cell activation ([3]; 20 mg/kg, 16 hours after administration, mice whole blood, anti-IgD antibody)
CC1CCc2cc3c(=O)n(-c4nccc(-c5cc(Nc6ccc(N7CCN(C8COC8)C[C@@H]7C)cn6)c(=O)n(C)c5)c4CO)ccn3c2C1 (mixture of isomers) [Compound 78]	83.4%	better than that of the reference GDC-0853	91.8%	–	–	–	–	–	–
C[C@@H]1CN(c2ccc(Nc3cc(-c4ccnc(-n5ccn6c7c(cc6c5=O)CCC7)c4CO)cn(C)c3=O)nc2)[C@@H](C)CN1C1COC1 [Compound 2, 2-(5-((5-((2S,5R)-2,5-dimethyl-4-(oxetan-3-yl)piperazin-1-yl)pyridin-2-yl)amino)-3′-(hydroxymethyl)-1-methyl-6-oxo-1,6-dihydro-[3,4′-bispyridin]-2′-yl)-7,8-dihydro-2H-cyclopenta[4,5]pyrrolo[1,2-a]pyrazin-1(6H)-one]	90.5%	better than that of the reference GDC-0853	98.9%	–	–	–	–	–	–
Cn1cc(-c2ccnc(-n3ccn4c5c(cc4c3=O)CC(C)(C)C5)c2CO)cc(Nc2ccc(N3CCN(C4COC4)CC3)cn2)c1=O [Compound 9]	95.7%	better than that of the reference GDC-0853	89.5%	–	–	–	–	–	–
C[C@H]1CN(C2COC2)CCN1c1ccc(Nc2cc(-c3ccnc(-n4ccn5c6c(cc5c4=O)CC(C)(C)C6)c3CO)cn(C)c2=O)nc1 [Compound 19]	91.8%	better than that of the reference GDC-0853	92.7%	8.3 ± 1.2	80%	80%	–	–	–
C[C@H]1CN(C2COC2)CCN1c1ccc(Nc2cc(-c3ccnc(-n4ccn5c6c(cc5c4=O)CC(C)(C)C6)c3CO)nn(C)c2=O)nc1 [Compound 22]	83.4%	better than that of the reference GDC-0853	95.6%	–	–	–	–	–	–
C[C@H]1CN(C2COC2)CCN1c1cnc(Nc2cc(-c3ccnc(-n4ccn5c6c(cc5c4=O)CC(C)(C)C6)c3CO)cn(C)c2=O)nc1 [Compound 44]	93.1%	better than that of the reference GDC-0853	97.1%	–	–	–	–	–	–
C[C@H]1CN(C2COC2)CCN1c1ccc(Nc2cc(-c3ccnc(-n4ccn5c6c(cc5c4=O)CCC(F)(F)C6)c3CO)cn(C)c2=O)nc1 [Compound 56]	89.5%	better than that of the reference GDC-0853	93.7%	–	–	–	–	–	–
C[C@H]1CN(C2COC2)CCN1c1ccc(Nc2cc(-c3ccnc(-n4ccn5c6c(cc5c4=O)CC(F)(F)CC6)c3CO)cn(C)c2=O)nc1 [Compound 58]	97.1%	better than that of the reference GDC-0853	~100%	–	–	–	–	–	–
C[C@H]1CN(C2COC2)CCN1c1ccc(Nc2cc(-c3ccnc(-n4cnn5c6c(cc5c4=O)CC(C)(C)C6)c3CO)cn(C)c2=O)nc1 [Compound 63]	85.8%	better than that of the reference GDC-0853	89.6%	–	–	–	–	–	–
C[C@H]1CN(C2COC2)CCN1c1ccc(Nc2cc(-c3ccnc(-n4ccn5c6c(cc5c4=O)CCC6)c3CO)cn(C)c2=O)nc1 [Compound 64]	95.6%	better than that of the reference GDC-0853	92.1%	–	–	–	–	–	–
C[C@H]1CN(C2COC2)CCN1c1ccc(Nc2cc(-c3ccnc(-n4ccn5c(cc6ccccc65)c4=O)c3CO)cn(C)c2=O)nc1 [Compound 74]	97.5%	better than that of the reference GDC-0853	87.7%	–	–	–	–	–	–
C[C@H]1CN(C2COC2)CCN1c1ccc(Nc2cc(-c3ccnc(-n4ccn5c(cc6cc(F)ccc65)c4=O)c3CO)cn(C)c2=O)nc1 [Compound 75]	83.0%	better than that of the reference GDC-0853	84.0%	–	–	–	–	–	–
C[C@H]1CN(C2COC2)CCN1c1ccc(Nc2cc(-c3ccnc(-n4ncn5c6c(cc5c4=O)CC(C)(C)C6)c3CO)cn(C)c2=O)nc1 [Compound 79]	~100%	better than that of the reference GDC-0853	~100%	–	–	–	–	–	–
C[C@H]1CN(C2COC2)CCN1c1ccc(Nc2cc(-c3ccnc(N4CCn5c(cc6c5CC(C)(C)C6)C4=O)c3CO)cn(C)c2=O)nc1 [GDC-0853, fenebrutinib, reference compound]	76.3%	–	81.0%	–	–	–	9%	29.3 ± 6.7	9%
